Results published in patent publication US12128114B2, “177Lu-DOTA-HYNIC-iPSMA as a therapeutic radiopharmaceutical targeting prostate-specific membrane antigen” (INSTITUTO NACIONAL DE INVESTIGACIONES NUCLEARES, priority 2018, dated 2024).
Each block holds one compound with its values, some of them ahead of it.

Experiments:
LNCaP-induced tumors = assay: Biodistribution assays in nude mice with LNCaP-induced tumors; format: in vivo
[1] = Stability of the radiopharmaceutical post-labelling (radiochemical purity); format: physicochemical; conditions: for more than 7 days post-labelling
Procedure: After reconstitution in 1.1 mL sodium acetate 1 M buffer solution pH 5.0 containing the sterile and pyrogen-free solution of lutetium-177 chloride (^177LuCl3) and incubation in a dry bath at 95° C. for 30 minutes, said formulation gave a clear, aqueous solution of the compound to be patented ^177Lu-DOTA-HYNIC-iPSMA (FIG. 1) with a radiochemical purity of more than 98%, as determined by reverse-phase HPLC, which presents the radio-chromatogram shown in FIG. 3.
(§1) The radiopharmaceutical remains stable, with a radiochemical purity of more than 98% for more than 7 days post-labelling. In vitro stability tests in human serum show a serum protein binding of 6.5±1.8% and a high radiochemical stability (>98%).

[2] = tested on: metastatic prostate cancer lesions; assay: Radiotherapeutic potential in prostate cancer patients (68Ga-PSMA-11 PET/CT and serum PSA); format: in vivo, human
Procedure: To evaluate the radiotherapeutic potential, between one and four cycles of ^177Lu-DOTA-HYNIC-iPSMA (3.7 or 7.4 GBq) were administered to 11 patients (mean age: 66 years; range: 45-86) every 8-10 weeks. The response was evaluated using images with ^68Ga-PSMA-11 PET/CT (radiopharmaceutical with a proven affinity in clinical practice and a high-resolution technique for the specific detection of metastatic prostate cancer lesions) and determining serum prostate-specific antigen (PSA) levels before and after treatment.

[3] = Toxicity in balb-C laboratory mice; format: in vivo; conditions: dose of 40 mg/kg
protein PSMA = target: T1, protein PSMA (Homo sapiens, UniProt Q04609); assay: Saturation studies in cancer cells positive for the protein PSMA (LNCaP); format: binding
T1 construct: saturation studies in cancer cells positive for the protein PSMA (LNCaP); endogenous in cells; host or cells: LNCaP

[4] = In vitro stability tests in human serum; format: in vitro ADME
Text: as §1

[5] = Biokinetics and dosimetry in healthy subjects (whole-body images, OLINDA/EXM); format: in vivo, human
Procedure: To determine the biokinetics and dosimetry for the radiopharmaceutical, whole-body images were acquired for five healthy subjects at 20 mins and 6, 24, 48 and 120 h post-administration of ^177Lu-DOTA-HYNIC-iPSMA (185 MBq). The sequence of images was used to extrapolate the time-activity curves in each organ to adjust the biokinetic model and calculate the total number of disintegrations (N) that occurred in the source regions. The values of N were used in the OLINDA/EXM code to calculate the internal doses of radiation. […] Uptake and excretion is mainly renal, with lower hepatic uptake and high uptake in the […], salivary, and lachrymal glands. The average doses absorbed were 0.23, 0.28, 0.88, and 1.17 mGy/MBq for the spleen, liver, kidney, and salivary glands, respectively.

prostate cancer = conditions: clinical studies, literature; cited from earlier work

T1 sequence (Q04609 whole entry): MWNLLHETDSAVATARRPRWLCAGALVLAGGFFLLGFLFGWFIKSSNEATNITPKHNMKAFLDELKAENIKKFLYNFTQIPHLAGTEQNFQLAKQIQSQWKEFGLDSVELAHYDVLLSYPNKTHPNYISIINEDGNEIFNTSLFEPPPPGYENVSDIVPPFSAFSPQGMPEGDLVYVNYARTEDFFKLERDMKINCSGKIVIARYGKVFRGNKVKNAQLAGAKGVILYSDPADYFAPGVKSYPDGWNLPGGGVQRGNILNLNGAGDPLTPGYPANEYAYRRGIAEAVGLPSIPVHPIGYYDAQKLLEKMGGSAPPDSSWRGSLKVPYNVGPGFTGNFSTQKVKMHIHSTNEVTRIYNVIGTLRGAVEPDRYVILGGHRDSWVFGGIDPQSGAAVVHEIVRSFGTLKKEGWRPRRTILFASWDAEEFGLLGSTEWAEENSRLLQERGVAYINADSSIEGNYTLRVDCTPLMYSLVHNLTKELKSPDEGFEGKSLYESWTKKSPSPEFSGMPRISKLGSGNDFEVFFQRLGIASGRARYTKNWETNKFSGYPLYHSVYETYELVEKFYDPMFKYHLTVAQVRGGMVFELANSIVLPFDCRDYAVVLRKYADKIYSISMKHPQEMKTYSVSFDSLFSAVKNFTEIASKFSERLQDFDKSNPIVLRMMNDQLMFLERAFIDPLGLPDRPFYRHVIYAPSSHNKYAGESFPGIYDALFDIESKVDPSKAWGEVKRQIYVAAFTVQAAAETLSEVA

SMILES: O=C(O)CCC(NC(=O)NC(CCCCNC(=O)C(Cc1ccc2ccccc2c1)NC(=O)c1ccc(NNC(=O)CN2CCN3CCN4CCN(CC2)CC(=O)[O][177Lu]([O]C(=O)C3)[O]C(=O)C4)nc1)C(=O)O)C(=O)O (centres unmarked) [177Lu-DOTA-HYNIC-iPSMA]
elimination pathway (LNCaP-induced tumors): mainly renal
uptake in tumors, % of the activity administered per gram of tissue (LNCaP-induced tumors): 9.74±1.13 % ID/g
radiochemical purity (stability post-labelling) [1]: more than 98%
patients exhibiting a reduction in PSA ([2]; 11 patients, one to four cycles of 3.7 or 7.4 GBq every 8-10 weeks): Around 60%
patients with a reduction in the number and size of metastatic lesions and/or uptake intensity, by imaging ([2]; 11 patients, one to four cycles of 3.7 or 7.4 GBq, 68Ga-PSMA-11 PET/CT): 70%
metastatic lesion sites on 68Ga-PSMA-11 PET follow-up ([2]; one patient, three cycles of treatment (FIG. 6)): decrease in size and number
toxicity or adverse effects [3]: did not present toxicity or adverse effects
maximum number of binding sites (Bmax) (protein PSMA): 5.89 ± 0.47 nM
radiochemical stability [4]: more than 98%
serum protein binding [4]: 6.5±1.8%
average dose absorbed, kidney ([5]; healthy subjects, kidney): 0.88 mGy/MBq
average dose absorbed, liver ([5]; healthy subjects, liver): 0.28 mGy/MBq
average dose absorbed, salivary glands ([5]; healthy subjects, salivary glands): 1.17 mGy/MBq
average dose absorbed, spleen ([5]; healthy subjects, spleen): 0.23 mGy/MBq
uptake and excretion ([5]; healthy volunteers): mainly renal
half life, second slow component (T1/2γ) ([5]; healthy volunteers, 185 MBq, ln 2/0.008): 79.6 h
half life, first slow component (T1/2β) ([5]; healthy volunteers, 185 MBq, ln 2/0.075): 9.2 h
half life, fast component (T1/2α) ([5]; healthy volunteers, 185 MBq, ln 2/0.614): 1.1 h

Kd (protein PSMA): 6.33 ± 2.69 nM
SMILES: O=C(O)CCC(NC(=O)NC(CCCCNC(=O)C(Cc1ccc2ccccc2c1)NC(=O)c1ccc(NNC(=O)CN2CCN3CCN4CCN(CC2)CC(=O)[O][Lu]([O]C(=O)C3)[O]C(=O)C4)nc1)C(=O)O)C(=O)O (centres unmarked) [177Lu-DOTA-HYNIC-iPSMA]

SMILES: O=C([O-])CN1CCN(CC(=O)[O-])CCN(CC(=O)NCC2CCC(C(=O)N[C@@H](Cc3ccc4ccccc4c3)C(=O)NCCCC[C@H](NC(=O)N[C@@H](CCC(=O)O)C(=O)O)C(=O)O)CC2)CCN(CC(=O)[O-])CC1.[177Lu+3] (some centres unmarked) [Lu-PSMA-617]
side-effects (prostate cancer): no severe side-effects
